Where two headings read alike, the source gives them in different places.
How the values were obtained:
DLD-1 BRCA2−/− cells = assay: Homologous recombination synthetic lethal inhibition of proliferation, DLD-1 BRCA2-/- (Cell Titre Glo 3D); type: cell-based; conditions: Homo sapiens, DLD-1, 288 h, 12 days
Method in brief: (§1)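 Isogenic DLD-1 pair; BRCA2−/− seeded 3,000 cells/mL and read day 12, wt seeded 1,500 cells/mL and read day 7. 10-pt titration (top 10 μM, 3-fold), re-fed with compound day 6, 37 °C/5% CO2. CTG 3D endpoint; IC50 at 50% signal loss.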

DLD-1 cells = assay: Inhibition of proliferation, DLD-1 BRCA2 wt control (Cell Titre Glo 3D); type: cell-based; conditions: Homo sapiens, DLD-1, 168 h, 7 days
Method in brief: as §1

[1] = DLD-1 BRCA2−/− cells, read-out: POLQ PD Prolif Lumin BRCA2 −/− mean pIC50 (converted)
[2] = DLD-1 BRCA2 wt cells, read-out: POLQ PD Prolif Lumin DLD1 mean pIC50 (converted)
[3] = DLD-1 BRCA2−/−, Cell Titre Glo 3D, read-out: POLQ PD Prolif Lumin BRCA2 −/− Mean pIC50 (converted)
[4] = DLD-1 (BRCA2 wt control), Cell Titre Glo 3D, read-out: POLQ PD Prolif Lumin DLD1 Mean pIC50 (converted)

Row | Structure (SMILES) | IC50 (DLD-1 cells; [2]) [nM] | IC50 (DLD-1 cells; [4]) [nM] | IC50 (DLD-1 BRCA2−/− cells; [1]) [nM] | IC50 (DLD-1 BRCA2−/− cells; [3]) [nM]
1 | CC1(Oc2cccc3c2nc(-c2ccc(OCCN4CCNCC4)cc2Cl)n3Cc2cc(Cl)ccn2)CC1 [Example 15, 2-(2-chloro-4-(2-(piperazin-1-yl)ethoxy)phenyl)-1-((4-chloropyridin-2-yl)methyl)-4-(1-methylcyclopropoxy)-1H-benzo[d]imidazole] | 6310 |  | 251 | 
2 | CC1(Oc2nccc3c2nc(-c2ccc(OCCN4CCNCC4)cc2Cl)n3Cc2cc(Cl)ccn2)CC1 [Example 16, 2-(2-chloro-4-(2-(piperazin-1-yl)ethoxy)phenyl)-1-((4-chloropyridin-2-yl)methyl)-4-(1-methylcyclopropoxy)-1H-imidazo[4,5-c]pyridine] | > 10000 |  | 398 | 
3 | CN(C)CCCOc1ccc(-c2nc3c(OC4(C)CC4)ncnc3n2Cc2cc(Cl)ccn2)c(Cl)c1 [Example 17, 3-(3-Chloro-4-(9-((4-chloropyridin-2-yl)methyl)-6-(1-methylcyclopropoxy)-9H-purin-8-yl)phenoxy)-N,N-dimethylpropan-1-amine] | > 10000 |  | 79.4 | 
4 | CC1(Oc2ncnc3c2nc(-c2ccc(OCCN4CC5(CNC5)C4)cc2Cl)n3Cc2ccccc2)CC1 [Example 18, 8-(4-(2-(2,6-Diazaspiro[3.3]heptan-2-yl)ethoxy)-2-chlorophenyl)-9-benzyl-6-(1-methylcyclopropoxy)-9H-purine] | 5010 |  | 398 | 
5 | Cc1cc(N2CC(N)C2)ncc1-c1nc2c(OC3(C)CC3)ncnc2n1Cc1ccccc1 [Example 19, 1-(5-(9-Benzyl-6-(1-methylcyclopropoxy)-9H-purin-8-yl)-4-methylpyridin-2-yl)azetidin-3-amine] | > 10000 |  | 501 | 
6 | CN1CCN(CCOc2cc(Cl)c(-c3nc4c(OC5(C)CC5)ncnc4n3Cc3ccccc3)cn2)CC1 [Example 20, 9-Benzyl-8-(4-chloro-6-(2-(4-methylpiperazin-1-yl)ethoxy)pyridin-3-yl)-6-(1-methylcyclopropoxy)-9H-purine] | 7940 |  | 398 | 
7 | Cc1cc(OCCN2CCCC2)ncc1-c1nc2c(OC3(C)CC3)ncnc2n1Cc1ccccc1 [Example 21, 9-Benzyl-8-(4-methyl-6-(2-(pyrrolidin-1-yl)ethoxy)pyridin-3-yl)-6-(1-methylcyclopropoxy)-9H-purine] | > 10000 |  | 398 | 
8 | Cc1c(OCCN2CCNCC2)cncc1-c1nc2c(OC3(C)CC3)ncnc2n1Cc1ccccc1 [Example 22, 9-Benzyl-8-(4-methyl-5-(2-(piperazin-1-yl)ethoxy)pyridin-3-yl)-6-(1-methylcyclopropoxy)-9H-purine] | > 10000 |  | 631 | 
9 | CC1(Oc2ncnc3c2nc(-c2ccc(OCCN4CCNCC4)cc2Cl)n3Cc2cccc(Cl)n2)CC1 [Example 23, 8-(2-chloro-4-(2-(piperazin-1-yl)ethoxy)phenyl)-9-((6-chloropyridin-2-yl)methyl)-6-(1-methylcyclopropoxy)-9H-purine] | > 10000 |  | 631 | 
10 | Cc1cc(OCCN2CCNCC2)ncc1-c1nc2c(OC3(C)CCC3)ncnc2n1Cc1ccccc1 [Example 24, 9-Benzyl-8-(4-methyl-6-(2-(piperazin-1-yl)ethoxy)pyridin-3-yl)-6-(1-methylcyclobutoxy)-9H-purine] | 3980 |  | 158 | 
11 | Cc1ccnc(Cn2c(-c3ccc(OCCN(C)C)cc3Cl)nc3c(OC4(C)CC4)ncnc32)c1 [Example 25, 2-(3-Chloro-4-(6-(1-methylcyclopropoxy)-9-((4-methylpyridin-2-yl)methyl)-9H-purin-8-yl)phenoxy)-N,N-dimethylethan-1-amine] | > 10000 |  | 100 | 
12 | Cc1ccnc(Cn2c(-c3ccc(OCCN4CC(O)C4)cc3Cl)nc3c(OC4(C)CC4)ncnc32)c1 [Example 26, 1-(2-(3-Chloro-4-(6-(1-methylcyclopropoxy)-9-((4-methylpyridin-2-yl)methyl)-9H-purin-8-yl)phenoxy)ethyl)azetidin-3-ol] | > 10000 |  | 501 | 
13 | Cc1ccnc(Cn2c(-c3ccc(CC(N)=O)cc3Cl)nc3c(OC4(C)CC4)ncnc32)c1 [Example 30, 2-(3-Chloro-4-(6-(1-methylcyclopropoxy)-9-((4-methylpyridin-2-yl)methyl)-9H-purin-8-yl)phenyl)acetamide] |  | > 10000 |  | 631
14 | CC1(Oc2ncnc3c2nc(-c2ccc(/C=C/C(=O)O)cc2Cl)n3Cc2cccc(Cl)c2)CC1 [Example 31, (E)-3-(3-Chloro-4-(9-(3-chlorobenzyl)-6-(1-methylcyclopropoxy)-9H-purin-8-yl)phenyl)acrylic acid] |  | > 10000 |  | 398
15 | CC1(Oc2ncnc3c2nc(-c2ccc(OCC(C)(C)C(=O)O)cc2Cl)n3Cc2cccc(Cl)c2)CC1 [Example 32, 3-(3-Chloro-4-(9-(3-chlorobenzyl)-6-(1-methylcyclopropoxy)-9H-purin-8-yl)phenoxy)-2,2-dimethylpropanoic acid] |  | > 10000 |  | 631
16 | Cc1ccnc(Cn2c(-c3ccc(OCCO)cc3Cl)nc3c(OC4(C)CC4)ncnc32)c1 [Example 33, 2-(3-Chloro-4-(6-(1-methylcyclopropoxy)-9-((4-methylpyridin-2-yl)methyl)-9H-purin-8-yl)phenoxy)ethan-1-ol] |  | > 10000 |  | 126

Now from value to compound, other results behind:

Row | IC50 (DLD-1 cells; [2]) [nM] | IC50 (DLD-1 cells; [4]) [nM] | Structure (SMILES) | IC50 (DLD-1 BRCA2−/− cells; [1]) [nM] | IC50 (DLD-1 BRCA2−/− cells; [3]) [nM]
17 |  | > 10000 | Cc1ccnc(Cn2c(-c3ccc(OC[C@H](C)O)cc3Cl)nc3c(OC4(C)CC4)ncnc32)c1 [Example 36, (S)-1-(3-Chloro-4-(6-(1-methylcyclopropoxy)-9-((4-methylpyridin-2-yl)methyl)-9H-purin-8-yl)phenoxy)propan-2-ol] |  | 251
18 |  | > 10000 | Cc1ccnc(Cn2c(-c3ccc(OC[C@@H](C)O)cc3Cl)nc3c(OC4(C)CC4)ncnc32)c1 [Example 37, (R)-1-(3-Chloro-4-(6-(1-methylcyclopropoxy)-9-((4-methylpyridin-2-yl)methyl)-9H-purin-8-yl)phenoxy)propan-2-ol] |  | 126
19 |  | > 10000 | CC1(Oc2ncnc3c2nc(-c2ccc(CC(N)=O)cc2Cl)n3Cc2cc(Cl)ccn2)CC1 [Example 38, 2-(3-Chloro-4-(9-((4-chloropyridin-2-yl)methyl)-6-(1-methylcyclopropoxy)-9H-purin-8-yl)phenyl)acetamide] |  | 398
20 |  | > 10000 | Cc1ccnc(Cn2c(-c3ccc(OC4CN(C(=O)CO)C4)cc3Cl)nc3c(OC4(C)CC4)ncnc32)c1 [Example 39, 1-(3-(3-Chloro-4-(6-(1-methylcyclopropoxy)-9-((4-methylpyridin-2-yl)methyl)-9H-purin-8-yl)phenoxy)azetidin-1-yl)-2-hydroxyethan-1-one] |  | 158
21 |  | > 10000 | CC(=O)N1CC(Oc2ccc(-c3nc4c(OC5(C)CC5)ncnc4n3Cc3cc(C)ccn3)c(Cl)c2)C1 [Example 40, 1-(3-(3-Chloro-4-(6-(1-methylcyclopropoxy)-9-((4-methylpyridin-2-yl)methyl)-9H-purin-8-yl)phenoxy)azetidin-1-yl)ethan-1-one] |  | 158
22 |  | > 10000 | Cc1ccnc(Cn2c(-c3ccc(O[C@H]4CCC(=O)NC4)cc3Cl)nc3c(OC4(C)CC4)ncnc32)c1 [Example 41, (S)-5-(3-Chloro-4-(6-(1-methylcyclopropoxy)-9-((4-methylpyridin-2-yl)methyl)-9H-purin-8-yl)phenoxy)piperidin-2-one] |  | 794
23 |  | > 10000 | Cc1ccnc(Cn2c(-c3ccc(OC4CNC(=O)NC4)cc3Cl)nc3c(OC4(C)CC4)ncnc32)c1 [Example 42, 5-(3-Chloro-4-(6-(1-methylcyclopropoxy)-9-((4-methylpyridin-2-yl)methyl)-9H-purin-8-yl)phenoxy)tetrahydropyrimidin-2(1H)-one] |  | 6310
24 |  | > 10000 | CC1(Oc2ncnc3c2nc(-c2ccc(OCCCCC(=O)O)cc2Cl)n3Cc2cccc(Cl)c2)CC1 [Example 43, 5-(3-Chloro-4-(9-(3-chlorobenzyl)-6-(1-methylcyclopropoxy)-9H-purin-8-yl)phenoxy)pentanoic acid] |  | 79.4
25 |  | > 10000 | CC1(Oc2ncnc3c2nc(-c2ccc(OCCCC(=O)O)cc2Cl)n3Cc2cccc(Cl)c2)CC1 [Example 44, 4-(3-Chloro-4-(9-(3-chlorobenzyl)-6-(1-methylcyclopropoxy)-9H-purin-8-yl)phenoxy)butanoic acid] |  | 158
26 |  | > 10000 | Cc1ccnc(Cn2c(-c3ccc(OCC(C)(C)O)cc3Cl)nc3c(OC4(C)CC4)ncnc32)c1 [Example 45, 1-(3-Chloro-4-(6-(1-methylcyclopropoxy)-9-((4-methylpyridin-2-yl)methyl)-9H-purin-8-yl)phenoxy)-2-methylpropan-2-ol] |  | 200
27 |  | > 10000 | CC1(Oc2ncnc3c2nc(-c2ccc(OCCOCC(=O)O)cc2Cl)n3Cc2cccc(Cl)c2)CC1 [Example 46, 2-(2-(3-Chloro-4-(9-(3-chlorobenzyl)-6-(1-methylcyclopropoxy)-9H-purin-8-yl)phenoxy)ethoxy)acetic acid] |  | 1260
28 |  | > 7940 | COc1ccc(Cl)cc1Cn1c(-c2ccc(OCC[C@@H](C)C(=O)O)cc2Cl)nc2c(OC3(C)CC3)ncnc21 [Example 47, (R)-4-(3-chloro-4-(9-(5-chloro-2-methoxybenzyl)-6-(1-methylcyclopropoxy)-9H-purin-8-yl)phenoxy)-2-methylbutanoic acid] |  | 25.1

Reference: patent US20250195530A1, “POLQ INHIBITORS” (ASTRAZENECA AB, priority 2022, published 2025)
